# Results published in ChEMBL document CHEMBL5046248, “New Pqs Quorum Sensing System Inhibitor as an Antibacterial Synergist against Multidrug-Resistant Pseudomonas aeruginosa” (J Med Chem, 2022).
# Active and inactive are the calls of the source. No cut-off for these calls is given here.
# Tests used:
# Pseudomonas aeruginosa [1] = test: Antibacterial activity against Pseudomonas aeruginosa 1167 assessed as bacterial growth inhibition by broth microdilution method; format: functional
# Pseudomonas aeruginosa [2] = test: Antibacterial activity against Pseudomonas aeruginosa FB assessed as bacterial growth inhibition by broth microdilution method; format: functional
# Pseudomonas aeruginosa [3] = test: Antibacterial activity against Pseudomonas aeruginosa PAO1 assessed as bacterial growth inhibition by broth microdilution method; format: functional
# Pseudomonas aeruginosa [4] = test: Antibacterial activity against Pseudomonas aeruginosa 1129 assessed as bacterial growth inhibition by broth microdilution method; format: functional
# Pseudomonas aeruginosa [5] = test: Antibacterial activity against Pseudomonas aeruginosa 1121 assessed as bacterial growth inhibition by broth microdilution method; format: functional
# Pseudomonas aeruginosa [6] = test: Antibacterial activity against Pseudomonas aeruginosa PAO1 assessed as inhibition of biofilm formation for 24 hrs by crystal violet staining based assay; format: functional, organism-based; details: PAO1, 24 h
# Pseudomonas aeruginosa [7] = test: Antibiofilm activity against Pseudomonas aeruginosa PAO1 assessed as effect on pyochelin production fluorescence at 1.25 to 20 uM by fluorescence assay; format: functional, organism-based; details: dose 1.25-20 µM
# Pseudomonas aeruginosa [8] = test: Synergistic antibacterial activity against multidrug-resistant Pseudomonas aeruginosa 1167 assessed as reduction in bacterial viability after 12 hrs in presence of 1/2 MIC of ciprofloxacin; format: functional, organism-based
# Pseudomonas aeruginosa [9] = test: Synergistic antibacterial activity against multidrug-resistant Pseudomonas aeruginosa 1121 assessed as reduction in bacterial viability after 12 hrs in presence of 1/2 MIC of ciprofloxacin; format: functional, organism-based
# Pseudomonas aeruginosa [10] = test: Synergistic antibacterial activity against multidrug-resistant Pseudomonas aeruginosa FB assessed as reduction in bacterial viability after 12 hrs in presence of 1/2 MIC of ciprofloxacin; format: functional, organism-based
# Pseudomonas aeruginosa [11] = test: Synergistic antibacterial activity against multidrug-resistant Pseudomonas aeruginosa 1129 assessed as reduction in bacterial viability after 12 hrs in presence of 1/2 MIC of ciprofloxacin; format: functional, organism-based
# Pseudomonas aeruginosa [12] = test: Antibiofilm activity against Pseudomonas aeruginosa PAO1 assessed as increase in pyoverdine production at 40 uM by fluorescence assay; format: functional, organism-based
# Pseudomonas aeruginosa [13] = test: In vivo antibacterial activity against Pseudomonas aeruginosa PAO1-gfp infected in tail injured zebrafish model assessed as reduction in bacterial burden at 20 uM measured after 24 hrs of post infection; format: functional, organism-based
# Pseudomonas aeruginosa [14] = test: Synergistic antibacterial activity against Pseudomonas aeruginosa PAO1 assessed as reduction in bacterial viability after 12 hrs in presence of tobramycin; format: functional, organism-based
# Pseudomonas aeruginosa [15] = test: Antibiofilm activity against Pseudomonas aeruginosa PAO1 assessed as inhibition of swimming motility for 16 hrs by motility assay; format: functional, organism-based; details: dose 1.25-20 µM
# Pseudomonas aeruginosa [16] = test: Antibiofilm activity against Pseudomonas aeruginosa PAO1 assessed as inhibition of swarming motility for 16 hrs by motility assay; format: functional, organism-based; details: dose 1.25-20 µM
# Pseudomonas aeruginosa [17] = test: Synergistic antibacterial activity against Pseudomonas aeruginosa PAO1 assessed as reduction in bacterial viability after 12 hrs in presence of 1/2 MIC of ciprofloxacin; format: functional, organism-based
# Pseudomonas aeruginosa [18] = test: Synergistic antibacterial activity against multidrug-resistant Pseudomonas aeruginosa 1129 assessed as reduction in bacterial viability after 12 hrs in presence of tobramycin; format: functional, organism-based
# Pseudomonas aeruginosa [19] = test: Inhibition of beta-galactosidase expression in Pseudomonas aeruginosa PAO1-mini-[…]-lacZ strain at 1.25 to 20 uM; format: functional; details: dose 1.25-20 µM
# Pseudomonas aeruginosa [20] = test: Synergistic antibacterial activity against multidrug-resistant Pseudomonas aeruginosa 1121 assessed as reduction in bacterial viability after 12 hrs in presence of colistin E; format: functional, organism-based
# H9c2 [21] = test: Cytotoxicity against rat H9c2 cells assessed as reduction in cell viability at 50 uM incubated for 24 hrs by MTT assay; format: toxicity, cell-based; details: h9c2, 24 h
# Pseudomonas aeruginosa [22] = test: Inhibition of quorum sensing system in Pseudomonas aeruginosa PAO1 assessed as decrease of pyocyanin production at 1.25 to 20 uM for 24 hrs; details: dose 1.25-20 µM
# Pseudomonas aeruginosa [23] = test: Inhibition of quorum sensing system in Pseudomonas aeruginosa PAO1 assessed as reduction of pyocyanin expression in flask at 1.25 to 20 uM for 24 hrs; details: dose 1.25-20 µM
# Pseudomonas aeruginosa [24] = test: Antibiofilm activity against Pseudomonas aeruginosa PAO1 assessed as inhibition rate at 0.625 uM for 24 hrs by crystal violet staining based assay relative to control; format: functional
# Pseudomonas aeruginosa [25] = test: Synergistic antibacterial activity against multidrug-resistant Pseudomonas aeruginosa 1129 assessed as reduction in bacterial viability after 12 hrs in presence of colistin E; format: functional, organism-based
# Pseudomonas aeruginosa [26] = test: Inhibition of elastase expression in Pseudomonas aeruginosa PAO1-mini-[…]-lasB-lacZ strain assessed as decrease in beta-galactosidase at 1.25 to 20 uM; format: functional; details: PAO1-mini-[…]-lasB-[…], dose 1.25-20 µM
# Pseudomonas aeruginosa [27] = test: Antibacterial activity against Pseudomonas aeruginosa PAO1 infected rat H9c2 cells assessed as reduction in virulence mediated cytotoxicity by measuring increase in cell viability by MTT assay; format: functional, organism-based; details: dose 1.25-20 µM
# Pseudomonas aeruginosa [28] = test: Antibiofilm activity against Pseudomonas aeruginosa PAO1 assessed as inhibition of twitching motility for 16 hrs by motility assay; format: functional, organism-based; details: dose 1.25-20 µM
# Pseudomonas aeruginosa [29] = test: In vivo antibacterial activity against Pseudomonas aeruginosa PAO1-gfp infected in tail injured zebrafish model assessed as reduction in mortality at 10 to 20 uM measured upto 50 hrs of post fertilization; format: functional, organism-based; details: dose 10-20 µM, time hrs <=50
# Pseudomonas aeruginosa [30] = test: Inhibition of pyocyanin expression in Pseudomonas aeruginosa PAO1-mini-[…]-pqsA-lacZ strain assessed as decrease in beta-galactosidase at 1.25 to 20 uM; format: functional; details: PAO1-mini-ctx-pqsA-lacZ, dose 1.25-20 µM
# Pseudomonas aeruginosa [31] = test: Inhibition of rhamnolipid expression in Pseudomonas aeruginosa PAO1-mini-[…]-rhlA-lacZ strain assessed as decrease in beta-galactosidase at 1.25 to 20 uM; format: functional; details: PAO1-mini-ctx-[…]-lacZ, dose 1.25-20 µM
# Pseudomonas aeruginosa [32] = test: Inhibition of quorum sensing system in Pseudomonas aeruginosa PAO1 assessed as effect on rhamnolipid production at 1.25 to 20 uM for 24 hrs; details: dose 1.25-20 µM
# Pseudomonas aeruginosa [33] = test: Inhibition of quorum sensing system in Pseudomonas aeruginosa PAO1 assessed as effect on elastase production for 24 hrs; details: dose 1.25-20 µM
# H9c2 [34] = test: Cytotoxicity against rat H9c2 cells assessed as reduction in cell viability at up to 25 uM incubated for 24 hrs by MTT assay; format: toxicity, cell-based; details: h9c2, 24 h
# Pseudomonas aeruginosa [35] = test: Synergistic antibacterial activity against multidrug-resistant Pseudomonas aeruginosa FB assessed as reduction in bacterial viability after 12 hrs in presence of colistin E; format: functional, organism-based
# Pseudomonas aeruginosa [36] = test: Antibacterial activity against Pseudomonas aeruginosa PAO1 infected rat H9c2 cells assessed as reduction in virulence mediated cytotoxicity by measuring cell survival rate at 20 uM by MTT assay (reference value: 36%); format: functional
# Pseudomonas aeruginosa [37] = test: In vivo antibacterial activity against Pseudomonas aeruginosa PAO1-gfp infected in tail injured zebrafish model assessed as increase in survival of zebrafish at 10 to 20 uM measured upto 50 hrs of post fertilization; format: functional, organism-based; details: dose 10-20 µM, time hrs <=50
# Pseudomonas aeruginosa [38] = test: Synergistic antibacterial activity against multidrug-resistant Pseudomonas aeruginosa FB assessed as reduction in bacterial viability after 12 hrs in presence of tobramycin; format: functional, organism-based
# Pseudomonas aeruginosa [39] = test: Synergistic antibacterial activity against multidrug-resistant Pseudomonas aeruginosa 1167 assessed as reduction in bacterial viability after 12 hrs in presence of colistin E; format: functional, organism-based
# Pseudomonas aeruginosa [40] = test: Antibiofilm activity against Pseudomonas aeruginosa PAO1 assessed as suppression of biofilm formation for 24 hrs by fluorescent dye SYTO9 and propidium iodide staining based confocal laser microscopic analysis; format: functional, organism-based; details: dose 0.625-10 µM
# Pseudomonas aeruginosa [41] = test: Synergistic antibacterial activity against Pseudomonas aeruginosa PAO1 assessed as reduction in bacterial viability after 12 hrs in presence of colistin E; format: functional, organism-based
smiles,measurement,setting,value
NC[C@H]1O[C@H](O[C@H]2[C@H](O)[C@@H](O[C@H]3O[C@H](CO)[C@@H](O)[C@H](N)[C@H]3O)[C@H](N)C[C@@H]2N)[C@H](N)C[C@@H]1O [TOBRAMYCIN],MIC,Pseudomonas aeruginosa [1],10 µg/mL
same,MIC,Pseudomonas aeruginosa [2],10 µg/mL
same,MIC,Pseudomonas aeruginosa [3],5 µg/mL
same,MIC,Pseudomonas aeruginosa [4],10 µg/mL
same,MIC,Pseudomonas aeruginosa [5],10 µg/mL
CCCCn1c(C)cc(=O)c(O)c1CNC(=O)Cc1ccc(F)cc1,IC50,Pseudomonas aeruginosa [6],> 100 µM
CCCCCC(=O)NCc1cc(=O)c(O)cn1O,IC50,Pseudomonas aeruginosa [6],> 100 µM
COc1ccc(C(=O)NCc2cc(=O)c(O)cn2C)cc1,IC50,Pseudomonas aeruginosa [6],> 100 µM
CCCn1c(C)cc(=O)c(O)c1CNc1ccc(OC)cc1,IC50,Pseudomonas aeruginosa [6],55.5 µM
CCCCCC(=O)NCc1c(O)c(=O)cc(C)n1CC,IC50,Pseudomonas aeruginosa [6],> 100 µM
CCCCn1c(C)cc(=O)c(O)c1CNC(=O)c1ccccc1OC,IC50,Pseudomonas aeruginosa [6],28.5 µM
Cc1c(O)c(=O)ccn1C,Activity,Pseudomonas aeruginosa [7],inactive
COCCn1c(C)cc(=O)c(O)c1CNC(=O)c1ccc(C(F)(F)F)cc1,IC50,Pseudomonas aeruginosa [6],> 100 µM
CCCCn1c(C)cc(=O)c(O)c1CNC(=O)c1ccc(OC)cc1,Activity,Pseudomonas aeruginosa [8],Dose-Dependent Effect
same,Activity,Pseudomonas aeruginosa [9],Dose-Dependent Effect
same,Activity,Pseudomonas aeruginosa [10],Dose-Dependent Effect
same,Activity,Pseudomonas aeruginosa [11],Dose-Dependent Effect
same,Activity,Pseudomonas aeruginosa [12],Active
same,Activity,Pseudomonas aeruginosa [13],Active
same,Activity,Pseudomonas aeruginosa [14],Dose-Dependent Effect
same,Activity,Pseudomonas aeruginosa [15],Dose-Dependent Effect
same,Activity,Pseudomonas aeruginosa [16],Dose-Dependent Effect
same,Activity,Pseudomonas aeruginosa [17],Dose-Dependent Effect
same,Activity,Pseudomonas aeruginosa [18],Dose-Dependent Effect
same,Activity,Pseudomonas aeruginosa [19],inactive
same,Activity,Pseudomonas aeruginosa [20],Dose-Dependent Effect
same,Activity,H9c2 [21],Toxic
same,Activity,Pseudomonas aeruginosa [22],Dose-Dependent Effect
same,Activity,Pseudomonas aeruginosa [7],inactive
same,Activity,Pseudomonas aeruginosa [23],Active
same,inhibition at 0.625 µM,Pseudomonas aeruginosa [24],> 28%
same,Activity,Pseudomonas aeruginosa [25],Dose-Dependent Effect
same,Activity,Pseudomonas aeruginosa [26],inactive
same,Activity,Pseudomonas aeruginosa [27],Dose-Dependent Effect
same,Activity,Pseudomonas aeruginosa [28],Dose-Dependent Effect
same,Activity,Pseudomonas aeruginosa [29],Active
same,Activity,Pseudomonas aeruginosa [30],Dose-Dependent Effect
same,Activity,Pseudomonas aeruginosa [31],inactive
same,Activity,Pseudomonas aeruginosa [32],inactive
same,Activity,Pseudomonas aeruginosa [33],inactive
same,Activity,H9c2 [34],Non-Toxic
same,Activity,Pseudomonas aeruginosa [35],Dose-Dependent Effect
same,Activity,Pseudomonas aeruginosa [36],79%
same,Activity,Pseudomonas aeruginosa [37],Active
same,Activity,Pseudomonas aeruginosa [38],Dose-Dependent Effect
same,Activity,Pseudomonas aeruginosa [39],Dose-Dependent Effect
same,Activity,Pseudomonas aeruginosa [40],Dose-Dependent Effect
same,Activity,Pseudomonas aeruginosa [41],Dose-Dependent Effect
same,IC50,Pseudomonas aeruginosa [6],4.5 µM
CCCCCC(=O)NCc1cc(=O)c(O)cn1C,IC50,Pseudomonas aeruginosa [6],> 100 µM
CCCCCCC(=O)NCc1cc(=O)c(O)cn1C,IC50,Pseudomonas aeruginosa [6],> 100 µM
CCn1c(C)cc(=O)c(O)c1CNc1ccc(OC)cc1,IC50,Pseudomonas aeruginosa [6],> 100 µM
CCCCCC(=O)NCc1c(O)c(=O)cc(C)n1CCC,IC50,Pseudomonas aeruginosa [6],> 100 µM
CCCCCCC(=O)NCc1c(O)c(=O)cc(C)n1CCCC,IC50,Pseudomonas aeruginosa [6],> 100 µM
O=C(NCc1cc(=O)c(O)cn1O)c1ccc(C(F)(F)F)cc1,IC50,Pseudomonas aeruginosa [6],> 100 µM
CCCCn1c(C)cc(=O)c(O)c1CNC(=O)c1cccc(OC)c1,IC50,Pseudomonas aeruginosa [6],31.1 µM
COc1ccc(C(=O)NCc2cc(=O)c(O)cn2O)cc1,IC50,Pseudomonas aeruginosa [6],> 100 µM
CCCCCCC(=O)NCc1c(O)c(=O)cc(C)n1CC,IC50,Pseudomonas aeruginosa [6],> 100 µM
CCn1c(C)cc(=O)c(O)c1CNS(=O)(=O)c1ccc(OC)cc1,IC50,Pseudomonas aeruginosa [6],> 100 µM
COCCn1c(C)cc(=O)c(O)c1CNC(=O)c1ccc(OC)cc1,IC50,Pseudomonas aeruginosa [6],> 100 µM
CCn1c(C)cc(=O)c(O)c1CNC(=O)c1ccc(OC)cc1,IC50,Pseudomonas aeruginosa [6],> 100 µM
